Results taken from ChEMBL document CHEMBL2311352, “Discovery of 4-phenyl-2-phenylaminopyridine based TNIK inhibitors” (Bioorg Med Chem Lett, 2013).

Columns and labels:
[1] = biological target: Homeodomain-interacting protein kinase 1 (Homo sapiens) (UniProt Q86Z02); test: Inhibition of HIPK1 (unknown origin) at 1 uM
[2] = biological target: Tyrosine-protein kinase receptor UFO (Homo sapiens) (UniProt P30530); test: Inhibition of AXL (unknown origin) at 1 uM
[3] = biological target: Tyrosine-protein kinase Fyn (Homo sapiens) (UniProt P06241); test: Inhibition of FYN (unknown origin) at 1 uM
Tyrosine-protein kinase Fyn (Homo sapiens), sequence (P06241 2-537 limits assumed): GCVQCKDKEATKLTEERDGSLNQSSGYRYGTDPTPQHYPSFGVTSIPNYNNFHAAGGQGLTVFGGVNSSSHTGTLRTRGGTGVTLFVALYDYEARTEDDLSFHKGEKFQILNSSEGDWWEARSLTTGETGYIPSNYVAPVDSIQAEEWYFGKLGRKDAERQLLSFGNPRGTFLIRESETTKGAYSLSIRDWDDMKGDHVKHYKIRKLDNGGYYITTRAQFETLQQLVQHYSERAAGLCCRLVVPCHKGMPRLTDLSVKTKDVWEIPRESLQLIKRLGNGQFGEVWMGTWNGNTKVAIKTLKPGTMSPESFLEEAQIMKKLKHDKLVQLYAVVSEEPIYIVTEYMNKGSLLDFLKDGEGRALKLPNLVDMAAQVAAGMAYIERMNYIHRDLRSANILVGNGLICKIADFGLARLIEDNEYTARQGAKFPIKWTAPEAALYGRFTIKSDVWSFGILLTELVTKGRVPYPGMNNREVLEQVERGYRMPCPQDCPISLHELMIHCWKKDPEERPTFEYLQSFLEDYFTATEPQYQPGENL

[4] = biological target: Tyrosine-protein kinase Fgr (Homo sapiens) (UniProt P09769); test: Inhibition of FGR (unknown origin) at 1 uM
Tyrosine-protein kinase Fgr (Homo sapiens), sequence (P09769 2-529 limits assumed): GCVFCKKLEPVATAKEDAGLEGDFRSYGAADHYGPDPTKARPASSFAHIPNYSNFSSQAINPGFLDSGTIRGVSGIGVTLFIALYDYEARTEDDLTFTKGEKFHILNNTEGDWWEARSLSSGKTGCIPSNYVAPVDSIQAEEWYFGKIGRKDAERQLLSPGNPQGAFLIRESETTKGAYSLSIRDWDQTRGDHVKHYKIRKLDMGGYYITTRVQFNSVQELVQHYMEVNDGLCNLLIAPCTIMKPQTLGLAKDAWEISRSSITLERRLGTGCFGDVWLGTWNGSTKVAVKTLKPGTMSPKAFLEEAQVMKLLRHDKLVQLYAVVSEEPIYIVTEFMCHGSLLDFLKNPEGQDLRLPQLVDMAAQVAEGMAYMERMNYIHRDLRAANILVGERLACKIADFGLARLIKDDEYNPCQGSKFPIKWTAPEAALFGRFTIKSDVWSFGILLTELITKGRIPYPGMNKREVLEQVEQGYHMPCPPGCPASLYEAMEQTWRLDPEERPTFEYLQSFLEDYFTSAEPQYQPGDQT

[5] = biological target: T1, TRAF2 and NCK-interacting protein kinase (Homo sapiens, UniProt Q9UKE5); test: Competitive binding affinity to TNIK (unknown origin) in presence of ATP
T1 sequence (Q9UKE5 whole entry): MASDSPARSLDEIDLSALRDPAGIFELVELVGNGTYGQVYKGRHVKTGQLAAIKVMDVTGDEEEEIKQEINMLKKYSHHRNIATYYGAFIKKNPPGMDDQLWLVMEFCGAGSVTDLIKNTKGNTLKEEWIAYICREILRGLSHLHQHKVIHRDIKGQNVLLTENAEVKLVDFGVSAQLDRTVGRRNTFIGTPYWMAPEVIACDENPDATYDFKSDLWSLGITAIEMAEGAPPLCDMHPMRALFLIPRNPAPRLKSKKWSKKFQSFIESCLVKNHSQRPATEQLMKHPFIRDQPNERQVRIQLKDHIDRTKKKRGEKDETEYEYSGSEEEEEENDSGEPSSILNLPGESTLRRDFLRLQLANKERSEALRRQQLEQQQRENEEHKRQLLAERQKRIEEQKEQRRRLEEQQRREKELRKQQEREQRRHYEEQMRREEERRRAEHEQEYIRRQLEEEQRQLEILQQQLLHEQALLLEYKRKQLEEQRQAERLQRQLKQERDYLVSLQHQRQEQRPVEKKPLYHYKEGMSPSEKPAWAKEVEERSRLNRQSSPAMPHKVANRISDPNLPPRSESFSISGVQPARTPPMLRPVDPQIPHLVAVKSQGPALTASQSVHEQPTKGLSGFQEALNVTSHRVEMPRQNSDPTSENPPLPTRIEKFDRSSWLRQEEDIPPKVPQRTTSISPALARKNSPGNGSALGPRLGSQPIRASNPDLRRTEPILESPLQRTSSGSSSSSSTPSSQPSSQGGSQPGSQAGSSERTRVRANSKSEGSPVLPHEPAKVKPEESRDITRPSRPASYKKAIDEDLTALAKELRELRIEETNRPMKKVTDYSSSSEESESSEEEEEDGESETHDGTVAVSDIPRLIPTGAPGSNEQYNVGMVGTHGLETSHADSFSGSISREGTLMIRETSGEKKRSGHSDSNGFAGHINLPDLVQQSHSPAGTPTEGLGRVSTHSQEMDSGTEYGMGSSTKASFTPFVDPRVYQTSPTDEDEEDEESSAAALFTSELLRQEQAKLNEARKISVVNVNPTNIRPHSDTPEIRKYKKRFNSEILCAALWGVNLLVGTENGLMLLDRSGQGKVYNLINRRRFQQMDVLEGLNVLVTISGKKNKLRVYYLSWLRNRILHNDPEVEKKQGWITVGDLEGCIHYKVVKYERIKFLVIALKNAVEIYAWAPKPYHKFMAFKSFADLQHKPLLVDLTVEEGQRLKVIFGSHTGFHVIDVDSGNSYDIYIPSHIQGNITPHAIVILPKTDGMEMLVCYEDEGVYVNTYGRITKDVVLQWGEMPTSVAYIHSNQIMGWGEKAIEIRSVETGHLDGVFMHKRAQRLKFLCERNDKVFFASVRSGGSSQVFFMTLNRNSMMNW

[6] = biological target: Tyrosine-protein kinase JAK2 (Homo sapiens) (UniProt O60674); test: Inhibition of JAK2 (unknown origin) at 1 uM
[7] = biological target: Cyclin-dependent kinase 1/cyclin B1 (Homo sapiens) (UniProt P06493+P14635); test: Inhibition of CDK1/cyclin B (unknown origin) at 1 uM; type: protein-complex assay
[8] = biological target: T1, TRAF2 and NCK-interacting protein kinase; test: Inhibition of TNIK-mediated TCF4/[…] transcription in human HCT116 cells by beta-lactamase reporter gene assay; type: cell-based, HCT-116
[9] = biological target: Angiopoietin-1 receptor (Homo sapiens) (UniProt Q02763); test: Inhibition of TIE2 (unknown origin) at 1 uM
[10] = biological target: Tyrosine-protein kinase Fer (Homo sapiens) (UniProt P16591); test: Inhibition of FER (unknown origin) at 1 uM
[11] = biological target: Platelet-derived growth factor receptor beta (Homo sapiens) (UniProt P09619); test: Inhibition of PDGFRbeta (unknown origin) at 1 uM
[12] = biological target: High affinity nerve growth factor receptor (Homo sapiens) (UniProt P04629); test: Inhibition of TRKA (unknown origin) at 1 uM
[13] = biological target: Tyrosine-protein kinase Yes (Homo sapiens) (UniProt P07947); test: Inhibition of YES (unknown origin) at 1 uM
[14] = biological target: Tyrosine-protein kinase Fes/Fps (Homo sapiens) (UniProt P07332); test: Inhibition of FES (unknown origin) at 1 uM
Tyrosine-protein kinase Fes/Fps (Homo sapiens), sequence (P07332 whole entry): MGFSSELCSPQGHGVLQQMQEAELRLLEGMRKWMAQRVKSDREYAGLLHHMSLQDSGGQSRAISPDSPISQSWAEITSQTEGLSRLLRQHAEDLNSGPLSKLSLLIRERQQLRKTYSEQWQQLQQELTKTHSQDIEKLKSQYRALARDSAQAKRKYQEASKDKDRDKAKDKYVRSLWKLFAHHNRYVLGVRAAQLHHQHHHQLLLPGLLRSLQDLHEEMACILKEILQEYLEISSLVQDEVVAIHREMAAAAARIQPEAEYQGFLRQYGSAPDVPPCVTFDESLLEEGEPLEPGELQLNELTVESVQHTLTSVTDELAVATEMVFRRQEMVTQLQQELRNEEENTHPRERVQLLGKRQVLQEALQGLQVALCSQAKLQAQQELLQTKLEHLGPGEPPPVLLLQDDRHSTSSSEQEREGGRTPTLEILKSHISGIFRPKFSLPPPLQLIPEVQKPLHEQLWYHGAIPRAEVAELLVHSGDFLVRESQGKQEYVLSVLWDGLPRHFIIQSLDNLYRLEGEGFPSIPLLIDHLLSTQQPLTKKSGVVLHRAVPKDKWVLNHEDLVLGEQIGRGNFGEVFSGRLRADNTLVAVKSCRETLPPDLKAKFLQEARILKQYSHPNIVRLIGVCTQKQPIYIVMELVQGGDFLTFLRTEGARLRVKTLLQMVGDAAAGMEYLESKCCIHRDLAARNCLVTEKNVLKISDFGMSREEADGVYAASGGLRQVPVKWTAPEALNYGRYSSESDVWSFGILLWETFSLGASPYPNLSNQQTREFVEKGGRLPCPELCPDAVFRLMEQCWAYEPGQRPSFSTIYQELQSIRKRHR

[15] = biological target: Protein-tyrosine kinase 2-beta (Homo sapiens) (UniProt Q14289); test: Inhibition of PYK2 (unknown origin) at 1 uM
[16] = biological target: T1, TRAF2 and NCK-interacting protein kinase; test: Inhibition of TNIK (unknown origin) by ADP glo luminescent assay
[17] = biological target: Serine/threonine-protein kinase PAK 4 (Homo sapiens) (UniProt O96013); test: Inhibition of PAK4 (unknown origin) at 1 uM
[18] = biological target: Proto-oncogene tyrosine-protein kinase ROS (Homo sapiens) (UniProt P08922); test: Inhibition of ROS (unknown origin) at 1 uM
[19] = biological target: Muscle, skeletal receptor tyrosine-protein kinase (Homo sapiens) (UniProt O15146); test: Inhibition of MUSK (unknown origin) at 1 uM
[20] = biological target: Macrophage colony-stimulating factor 1 receptor (Homo sapiens) (UniProt P07333); test: Inhibition of FMS (unknown origin) at 1 uM
[21] = biological target: Cyclin-dependent kinase 4/cyclin D1 (Homo sapiens) (UniProt P11802+P24385); test: Inhibition of CDK4/cyclin D1 (unknown origin) at 1 uM; type: protein-complex assay
[22] = biological target: CDK6/cyclin D1 (Homo sapiens) (UniProt P24385+Q00534); test: Inhibition of CDK6/Cyclin D1 (unknown origin) at 1 uM; type: protein-complex assay
[23] = biological target: Proto-oncogene tyrosine-protein kinase Src (Homo sapiens) (UniProt P12931); test: Inhibition of c-SRC (unknown origin) at 1 uM
[24] = biological target: Tyrosine-protein kinase Lyn (Homo sapiens) (UniProt P07948); test: Inhibition of LYN (unknown origin) at 1 uM
Tyrosine-protein kinase Lyn (Homo sapiens), sequence (P07948 2-512 limits assumed): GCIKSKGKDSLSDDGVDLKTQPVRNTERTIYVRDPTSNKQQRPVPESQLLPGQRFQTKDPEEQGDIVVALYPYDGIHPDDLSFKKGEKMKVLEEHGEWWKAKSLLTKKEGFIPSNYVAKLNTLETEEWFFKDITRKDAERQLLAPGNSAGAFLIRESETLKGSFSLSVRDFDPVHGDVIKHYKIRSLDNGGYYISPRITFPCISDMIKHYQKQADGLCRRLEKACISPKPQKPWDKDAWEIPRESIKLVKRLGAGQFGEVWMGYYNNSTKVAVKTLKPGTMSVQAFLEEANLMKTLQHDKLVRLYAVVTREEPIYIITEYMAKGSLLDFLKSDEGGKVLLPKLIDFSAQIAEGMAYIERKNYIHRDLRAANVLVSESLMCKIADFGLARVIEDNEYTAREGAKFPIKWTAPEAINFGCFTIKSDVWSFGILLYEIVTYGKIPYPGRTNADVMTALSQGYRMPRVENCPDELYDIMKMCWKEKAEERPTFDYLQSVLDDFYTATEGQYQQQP

[25] = tested on: Caco-2; test: Ratio of apparent permeability across basolateral to apical side over apical to basolateral side in human Caco2 cells; type: ADME, cell-based
[26] = biological target: Aurora kinase A (Homo sapiens) (UniProt O14965); test: Inhibition of aurora A (unknown origin) at 1 uM
[27] = biological target: Platelet-derived growth factor receptor alpha (Homo sapiens) (UniProt P16234); test: Inhibition of PDGFRalpha (unknown origin) at 1 uM
[28] = biological target: Cyclin-dependent kinase 2/cyclin A (Homo sapiens) (UniProt P24941+P20248+P78396); test: Inhibition of CDK2/cyclin A (unknown origin) at 1 uM; type: protein-complex assay

Homeodomain-interacting protein kinase 1 (Homo sapiens), sequence (Q86Z02 whole entry, looked up): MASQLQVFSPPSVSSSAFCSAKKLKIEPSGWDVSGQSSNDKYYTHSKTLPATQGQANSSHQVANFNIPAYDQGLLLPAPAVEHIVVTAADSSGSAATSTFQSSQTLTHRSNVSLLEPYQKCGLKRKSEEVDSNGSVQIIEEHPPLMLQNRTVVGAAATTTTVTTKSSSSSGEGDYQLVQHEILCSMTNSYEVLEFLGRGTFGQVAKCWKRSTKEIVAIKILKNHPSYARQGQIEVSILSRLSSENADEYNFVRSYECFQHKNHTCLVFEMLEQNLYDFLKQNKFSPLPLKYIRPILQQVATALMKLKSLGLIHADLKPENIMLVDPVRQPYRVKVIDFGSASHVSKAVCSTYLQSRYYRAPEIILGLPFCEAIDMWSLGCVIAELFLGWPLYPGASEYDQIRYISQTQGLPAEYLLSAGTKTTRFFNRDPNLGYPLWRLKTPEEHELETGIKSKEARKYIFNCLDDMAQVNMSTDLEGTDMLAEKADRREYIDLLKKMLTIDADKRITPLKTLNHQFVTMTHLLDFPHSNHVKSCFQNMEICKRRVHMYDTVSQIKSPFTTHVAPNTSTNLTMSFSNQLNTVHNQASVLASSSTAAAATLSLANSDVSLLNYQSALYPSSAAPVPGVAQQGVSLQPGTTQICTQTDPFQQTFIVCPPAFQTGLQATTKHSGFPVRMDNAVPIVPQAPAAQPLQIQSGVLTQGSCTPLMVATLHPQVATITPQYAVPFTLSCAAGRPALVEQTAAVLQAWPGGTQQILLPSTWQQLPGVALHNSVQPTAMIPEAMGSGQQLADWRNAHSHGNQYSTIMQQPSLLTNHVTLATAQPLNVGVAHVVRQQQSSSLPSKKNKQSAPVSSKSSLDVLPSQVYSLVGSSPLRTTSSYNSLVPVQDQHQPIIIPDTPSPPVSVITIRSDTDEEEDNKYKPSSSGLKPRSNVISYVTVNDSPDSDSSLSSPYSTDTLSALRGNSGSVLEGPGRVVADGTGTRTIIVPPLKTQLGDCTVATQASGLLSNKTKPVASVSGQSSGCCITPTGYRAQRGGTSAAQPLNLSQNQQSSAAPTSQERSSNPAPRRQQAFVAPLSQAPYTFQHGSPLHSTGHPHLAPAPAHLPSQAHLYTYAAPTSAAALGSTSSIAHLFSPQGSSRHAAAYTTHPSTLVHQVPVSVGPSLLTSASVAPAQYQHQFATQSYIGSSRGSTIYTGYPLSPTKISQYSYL

COc1cc(Nc2ncc(Cl)c(-c3cccc(CC#N)c3)n2)ccc1N1CCN(C)CC1
inhibition [1]: 50% | inhibition [2]: > 80% | inhibition [3]: 50% | inhibition [4]: 50% | Kd [5]: 86 nM | inhibition [6]: > 95% | inhibition [7]: > 50% | IC50 [8]: 350 nM | inhibition [9]: 50% | inhibition [10]: > 80% | inhibition [11]: > 80% | inhibition [12]: > 80% | inhibition [13]: > 80% | inhibition [14]: > 80% | inhibition [15]: 50% | IC50 [16]: 65 nM | inhibition [17]: 50% | inhibition [18]: > 95% | inhibition [19]: > 80% | inhibition [20]: > 80% | inhibition [21]: > 80% | inhibition [22]: > 80% | inhibition [23]: > 80% | inhibition [24]: > 80% | Ratio [25]: 0.96 | inhibition [26]: > 95% | inhibition [27]: > 80% | inhibition [28]: > 50%
